BindingDB's records for doi:10.1016/S0960-894X(01)80292-4 (1994)

Experiments:
[1] = biological target: T1, Human immunodeficiency virus type 1 protease (Human immunodeficiency virus 1, UniProt Q72874); assay: (§1) Inhibitory activity was evaluated against HIV-1 protease
[2] = biological target: T1, Human immunodeficiency virus type 1 protease; assay: as §1; remark: listed apart in the source

- IC50 [1]: > 100 µM
- IC50 [2]: > 100 µM
Structure (SMILES): OC1N=C(Cc2ccccc2)P(O)(O)=C(Cc2ccccc2)N1 (configuration not stated) [4,6-Dibenzyl-5-hydroxy-5-oxo-5lambda*5*-[1,3,5]diazaphosphinan-2-one]
